Source: patent US20260159500A1, “KINESIN KIF18A INHIBITOR AND USE THEREOF” (SHANGHAI APEIRON THERAPEUTICS COMPANY LIMITED, priority 2022, published 2026)

Columns and labels:
OVCAR3 cells = assay: Cell proliferation activity test in OVCAR3 cells (CyQUANT Direct); type: cell-based; settings: Homo sapiens, OVCAR-3, 72 h, 3 days incubation, CyQUANT fluorescence detection, read-out: OVCAR-3_IC50_nM
Experimental: OVCAR3 cells were purchased from Nanjing Cobioer Biosciences Co., Ltd. RPMI-1640 medium, fetal bovine serum, and the CyQUANT Direct Cell Proliferation Assay kit were purchased from Thermo Fisher Scientific, USA; 96-well cell culture plates were sourced from Corning, USA.
Culture OVCAR3 cells with RPMI-1640 medium containing 10% fetal bovine serum and incubate them in a 5% CO2 incubator at 37° C. Only cells in the logarithmic growth phase can be used for the test.
Inoculate OVCAR3 cells into a 96-well cell culture plate at 90 μL per well and incubate overnight in a 5% CO2 incubator at 37° C. Dissolve the compound powder in DMSO to prepare a stock solution of 10 mM. Then perform gradient dilution for the compounds in the microplate to achieve a final concentration of 0-10 μM. Add 10 μL of cell culture medium containing compounds to each well to make the final DMSO content 0.2%. Incubate the cell plates in a 5% CO2 incubator at 37° C. for 3 days. Add 100 μL of CyQUANT detection reagent to each well, react at 37° C. for 60 min, and perform fluorescence detection using the PerkinElmer Envision.

[1] = biological target: T1, Human KIF18A (amino acid sequence 1-417) (Homo sapiens, UniProt Q8NI77); assay: Enzymatic activity test (ADP-Glo, microtubule-stimulated KIF18A ATPase); type: biochemical; settings: 60 μg/mL microtubules, 25 μM ATP, 2.5 nM KIF18A protein, 120 min at ambient temperature, read-out: KIF18A_nM
T1 construct: purchased Viva Biotech (Shanghai) Ltd
T1 sequence (Q8NI77 1-417): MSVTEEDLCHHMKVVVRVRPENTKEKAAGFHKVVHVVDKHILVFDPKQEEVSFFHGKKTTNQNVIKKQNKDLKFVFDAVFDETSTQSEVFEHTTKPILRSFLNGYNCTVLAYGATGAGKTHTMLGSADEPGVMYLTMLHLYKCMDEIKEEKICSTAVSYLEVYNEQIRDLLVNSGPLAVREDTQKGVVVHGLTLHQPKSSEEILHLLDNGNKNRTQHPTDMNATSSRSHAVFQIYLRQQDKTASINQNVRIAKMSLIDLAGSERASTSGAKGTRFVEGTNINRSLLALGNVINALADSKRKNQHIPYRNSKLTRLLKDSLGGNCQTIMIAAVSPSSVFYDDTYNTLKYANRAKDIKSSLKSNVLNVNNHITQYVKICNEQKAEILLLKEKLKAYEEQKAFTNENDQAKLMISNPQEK
Experimental: Human KIF18A (amino acid sequence 1-417) was purchased from Viva Biotech (Shanghai) Ltd.; the ADP-Glo™ protein kinase kit was acquired from Promega, USA; tubulin was sourced from Cytoskeleton, USA; and the 384-well assay plate and Envision multifunctional microplate reader were obtained from PerkinElmer, USA.
Dissolve the compound powder in DMSO to prepare a stock solution of 10 mM. Then perform gradient dilution for the compounds in the microplate to achieve a final concentration of 0-10 μM. Then, add 2.5 μL each of tubulin, compound, ATP, and KIF18A protein to the microplate in sequence for reaction at ambient temperature for 120 min. The final concentrations in the enzyme reaction are 60 μg/mL for microtubules, 25 μM for ATP, and 2.5 nM for KIF18A protein. After the enzyme reaction, add 10 μL of ADP-GLO reaction reagent to each well and incubate at ambient temperature for 30 min. After that, add 20 μL of detection reagent to each well and incubate at ambient temperature for 30 min in the dark. Finally, perform chemiluminescence detection using the PerkinElmer Envision.

HT29 cells = assay: CyQuant cell proliferation activity test in HT29 cells; type: cell-based; settings: Homo sapiens, HT-29, 72 h, 2000 cells per well, 3 days incubation, IC50 by XLFIT, read-out: HT29_IC50_nM
Experimental: HT29 cells were purchased from Nanjing Cobioer Biosciences Co., Ltd.; RPMI-1640 medium, fetal bovine serum, Trypsin-EDTA (0.25%), 96-well plates, and CyQuant reagents were purchased from ThermoFisher (USA); DMSO was purchased from SIGMA (USA).
Culture HT29 cells with RPMI-1640 containing 10% fetal bovine serum under the condition of 37° C. and 5% CO2. Only cells in the logarithmic growth phase can be used for the test.
Use the CyQuant reagent to detect the proliferation inhibitory activity of compounds on HT29 cells. Adjust the cell density and inoculate 100 μL per well into the 96-well plate (HT29 at 2000 cells per well), then incubate overnight under the condition of 37° C. and 5% CO2. Add compounds of various target concentrations (initial concentration of 3000 nM, 3-fold dilution, 9 concentration gradients), and make the DMSO content 0.2%. Incubate the cell plates at 37° C. and 5% CO2 for 3 days. Incubate with CyQuant reagent for 1 h, read the plate by Envision, and calculate IC50 using XLFIT.

SMILES	IC50 (OVCAR3 cells) [nM]	IC50 [1] [nM]	IC50 (HT29 cells) [nM]
O=C(Nc1nc2c(c(N3CCC(F)(F)CC3)n1)COC2)c1ccc(NS(=O)(=O)CCO)cc1N1CCC2(CC1)CC2 [Example 4, N-(4-(4,4-difluoropiperidin-1-yl)-5,7-dihydrofuro[3,4-d]pyrimidin-2-yl)-4-(2-hydroxyethylsulfonamido)-2-(6-azaspiro[2.5]octan-6-yl)benzamide]	1350	29	2020
O=C(Nc1cc2c(c(N3CCC(F)(F)CC3)n1)COC2)c1ccc(NS(=O)(=O)CCO)cc1N1CCC2(CC1)CC2 [Example 5, N-(4-(4,4-difluoropiperidin-1-yl)-1,3-dihydrofuro[3,4-c]pyridin-6-yl)-4-(2-hydroxyethylsulfonamido)-2-(6-azaspiro[2.5]octan-6-yl)benzamide]	6	28	7
O=C(Nc1nc2c(c(N3CCC(F)(F)CC3)n1)CNC2)c1ccc(NS(=O)(=O)CCO)cc1N1CCC2(CC1)CC2 [Example 7, N-(4-(4,4-difluoropiperidin-1-yl)-6,7-dihydro-5H-pyrrolo[3,4-d]pyrimidin-2-yl)-4-(2-hydroxyethylsulfonamido)-2-(6-azaspiro[2.5]octan-6-yl)benzamide]	> 10000	100	> 10000
CN1Cc2nc(NC(=O)c3ccc(NS(=O)(=O)CCO)cc3N3CCC4(CC3)CC4)nc(N3CCC(F)(F)CC3)c2C1 [Example 8, N-(4-(4,4-difluoropiperidin-1-yl)-6-methyl-6,7-dihydro-5H-pyrrolo[3,4-d]pyrimidin-2-yl)-4-(2-hydroxyethylsulfonamido)-2-(6-azaspiro[2.5]octan-6-yl)benzamide]	> 3000	280	> 3000
CC1OCc2c1cc(NC(=O)c1ccc(NS(=O)(=O)CCO)cc1N1CCC3(CC1)CC3)nc2N1CCC(F)(F)CC1 (centres unmarked) [Example 9, N-(4-(4,4-difluoropiperidin-1-yl)-1-methyl-1,3-dihydrofuro[3,4-c]pyridin-6-yl)-4-((2-hydroxyethyl)sulfonamido)-2-(6-azaspiro[2.5]octan-6-yl)benzamide]	55	49	37
CCC1(C)OCc2c1cc(NC(=O)c1ccc(NS(=O)(=O)CCO)cc1N1CCC3(CC1)CC3)nc2N1CCC(F)(F)CC1 (centres unmarked) [Example 10, N-(4-(4,4-difluoropiperidin-1-yl)-1-ethyl-1-methyl-1,3-dihydrofuro[3,4-c]pyridin-6-yl)-4-(2-hydroxyethylsulfonamido)-2-(6-azaspiro[2.5]octan-6-yl)benzamide]	614	2750	1270
O=C(Nc1cn2cccc2c(N2CCC(F)(F)CC2)n1)c1ccc(NS(=O)(=O)CCO)cc1N1CCC2(CC1)CC2 [Example 11, N-(1-(4,4-difluoropiperidin-1-yl)pyrrolo[1,2-a]pyrazin-3-yl)-4-(2-hydroxyethylsulfonamido)-2-(6-azaspiro[2.5]octan-6-yl)benzamide]	28	191	28
Cc1ncc2c(N3CCC(F)(F)CC3)nc(NC(=O)c3ccc(NS(=O)(=O)CCO)cc3N3CCC4(CC3)CC4)cn12 [Example 12, N-(8-(4,4-difluoropiperidin-1-yl)-3-methylimidazo[1,5-a]pyrazin-6-yl)-4-(2-hydroxyethylsulfonamido)-2-(6-azaspiro[2.5]octan-6-yl)benzamide]	80	80	102
O=C(Nc1cn2ccnc2c(N2CCC(F)(F)CC2)n1)c1ccc(NS(=O)(=O)CCO)cc1N1CCC2(CC1)CC2 [Example 13, N-(8-(4,4-difluoropiperidin-1-yl)imidazolo[1,2-a]pyrazin-6-yl)-4-((2-hydroxyethyl)sulfonamide)-2-(6-azaspiro[2.5]octan-6-yl)benzamide]	9	27	13
O=C(Nc1cc(N2CCC(F)(F)CC2)c2nccn2c1)c1ccc(NS(=O)(=O)CCO)cc1N1CCC2(CC1)CC2 [Example 14, N-(8-(4,4-difluoropiperidin-1-yl)imidazo[1,2-a]pyridin-6-yl)-4-((2-hydroxyethyl)sulfonamido)-2-(6-azaspiro[2.5]oct-6-yl)benzamide]	9	32	17
Cc1nc2c(N3CCC(F)(F)CC3)nc(NC(=O)c3ccc(NS(=O)(=O)CCO)cc3N3CCC4(CC3)CC4)cn2c1C [Example 15]	71	205	97
O=C(Nc1cn2ncnc2c(N2CCC(F)(F)CC2)n1)c1ccc(NS(=O)(=O)CCO)cc1N1CCC2(CC1)CC2 [Example 16]	33	29	56
O=C(Nc1cn2nccc2c(N2CCC(F)(F)CC2)n1)c1ccc(NS(=O)(=O)CCO)cc1N1CCC2(CC1)CC2 [Example 17]	20	28	30
O=C(Nc1cc(N2CCC(F)(F)CC2)c2ncnn2c1)c1ccc(NS(=O)(=O)CCO)cc1N1CCC2(CC1)CC2 [Example 18]	16	12	35
O=C(Nc1cn2cnnc2c(N2CCC(F)(F)CC2)n1)c1ccc(NS(=O)(=O)CCO)cc1N1CCC2(CC1)CC2 [Example 19, N-(8-(4,4-difluoropiperidin-1-yl)-[1,2,4]triazolo[4,3-a]pyrazin-6-yl)-4-((2-hydroxyethyl)sulfonamido)-2-(6-azaspiro[2.5]oct-6-yl)benzamide]	18	13	28
O=C(Nc1cc2cccn2c(N2CCC(F)(F)CC2)n1)c1ccc(NS(=O)(=O)CCO)cc1N1CCC2(CC1)CC2 [Example 20, N-(1-(4,4-difluoropiperidin-1-yl)pyrrolo[1,2-c]pyrimidin-3-yl)-4-(2-hydroxyethylsulfonamido)-2-(6-azaspiro[2.5]octan-6-yl)benzamide]	18		23
O=C(Nc1cc2ncnn2c(N2CCC(F)(F)CC2)n1)c1cc(F)c(NS(=O)(=O)CCO)cc1N1CCC2(CC1)CC2 [Example 25, (2-(6-azaspiro[2.5]oct-6-yl)-5-fluoro-4-{[(2-hydroxyethyl)sulphonyl]amino}phenyl)-N-[5-(4,4-difluoropiperidinyl)(4-hydro-1,2,4-triazolo[4,3-e]pyrimidin-7-yl)]formamide]	46	5	84
Cc1nnc2cc(NC(=O)c3ccc(NS(=O)(=O)CCO)cc3N3CCC4(CC3)CC4)nc(N3CCC(F)(F)CC3)n12 [Example 27, N-(5-(4,4-difluoropiperidin-1-yl)-3-methyl-[1,2,4]triazolo[4,3-c]pyrimidin-7-yl)-4-(2-hydroxyethylsulfonamido)-2-(6-azaspiro[2.5]octan-6-yl)benzamide]	23	13	33
